How the values were obtained:
[1] = tested on: patients with gout and a history of major cardiovascular diseases; assay: odds ratio for risk of developing or worsening chronic kidney disease, serum uric acid at or above 6 vs below 6; assay type: in vivo, human
Protocol: In order to confirm the effect of allopurinol and febuxostat on the kidney disease, the data obtained in the clinical trial described above was analyzed.
The patients were classified into patient groups by specific biomarkers such as blood glucose level, blood pressure, and kidney disease steps, and then risks of developing or worsening the kidney disease in patients who had the serum uric acid concentration decreased to less than 6 and patients who maintained the serum uric acid concentration at or above 6 were confirmed using odds ratios (OR) after the administration of allopurinol and febuxostat, and the results are shown in Tables 1 to 3.
Risks of developing the kidney disease of the patients who had the serum uric acid concentration decreased to less than 6 and the patients who maintained the serum uric acid concentration at or above 6 by administering allopurinol were confirmed using the odds ratios, and the results are shown in the following Table 1.
(§1) In Table 6, the risks of developing the kidney disease of the patients who had the serum uric acid concentration decreased to less than 6 and the patients who maintained the serum uric acid concentration at or above 6 by administering febuxostat are confirmed using the odds ratios.
as §1, with “12,” for “6,”, “were” for “by administering febuxostat are”, “ratio, in both patient groups to which allopurinol or febuxostat was administered.” for “ratios.”

[2] = cited from earlier work; for acute renal failure reported more often: post-marketing study, Arthritis Research & Therapy volume 21, Article number: 229 (2019)
[3] = Table 12, both administration groups

Compound	prevention or treatment of chronic kidney disease when serum uric acid maintained below 6 ([1]; Table 6, blood glucose ≥126 mg/dl, DBP ≤80 mm/Hg, or SBP ≤130 mm/Hg)	prevention or treatment of chronic kidney disease when serum uric acid maintained below 6 ([1]; Table 6, serum uric acid of 8 mg/dL or more or gout lasting for 10 years or more)	prevention or treatment of chronic kidney disease when serum uric acid maintained below 6 [1, 3]	acute renal failure reported more often [2]	prevention or treatment of chronic kidney disease when serum uric acid maintained below 6 ([1]; Table 12, blood glucose ≥126 mg/dl, DBP ≤80 mm/Hg, or SBP ≤130 mm/Hg)	risk of developing or worsening the chronic kidney disease, serum uric acid at or above 6 vs below 6 (odds ratio) ([1]; allopurinol, blood glucose level of 126 mg/dl or less)	risk of developing or worsening the chronic kidney disease, serum uric acid at or above 6 vs below 6 (odds ratio) ([1]; allopurinol, blood glucose level of 126 mg/dl or more)	risk of developing or worsening the kidney disease, serum uric acid at or above 6 vs below 6 (odds ratio) ([1]; allopurinol, diastolic blood pressure of 80 mm/Hg or higher)	risk of developing or worsening the chronic kidney disease, serum uric acid at or above 6 vs below 6 (odds ratio) ([1]; allopurinol, diastolic blood pressure of 80 mm/Hg or lower)	risk of developing or worsening the chronic kidney disease, serum uric acid at 6 or more vs below 6 (odds ratio) ([1]; allopurinol, having congestive cardiac failure)	risk of developing or worsening the chronic kidney disease, serum uric acid at 6 or more vs below 6 (odds ratio) ([1]; allopurinol, no congestive cardiac failure)	risk of developing or worsening the chronic kidney disease, serum uric acid at or above 6 vs below 6 (odds ratio) ([1]; allopurinol, systolic blood pressure of 130 mm/Hg or higher)	risk of developing or worsening the chronic kidney disease, serum uric acid at or above 6 vs below 6 (odds ratio) ([1]; allopurinol, systolic blood pressure of 130 mm/Hg or lower)	drug-induced nephrotoxicity ([2]; Am Fam Physician. 2008 September)	effect on kidney function ([2]; Kaohsiung J Med Sci. 2005 May;21(5):228-32)
Cc1nc(-c2ccc(OCC(C)C)c(C#N)c2)sc1C(=O)O [febuxostat]	effectively prevented or treated	effectively prevented or treated	effectively prevented or treated	5.7 times	–	–	–	–	–	–	–	–	–	–	–
Oc1ncnc2[nH]ncc12 [allopurinol]	–	–	effectively prevented or treated	3.3 times	effectively prevented or treated	about 1.34 times	about 2.53 times	about 1.35 times	about 2.04 times	about 1.21 times	about 1.84 times	about 1.54 times	about 1.93 times	causes acute interstitial nephritis	worsens kidney function
